Measurements as given in the NIST ThermoML archive (doi:10.1021/je501133u).

Experiment: xn = mol fraction of the nth substance listed
Conditions: 100 kPa, Liquid; for viscosity: Falling or rolling sphere viscometry; for mass density: Vibrating tube method

CCCCCCO [hexan-1-ol] + CCO
Conditions | mass density [kg/m3] | viscosity [mPa·s]
293.15 K, x2 = 0 | 818.9 | 5.35
293.15 K, x2 = 0.1001 | 816.7 | 4.67
293.15 K, x2 = 0.2003 | 815.1 | 4.15
293.15 K, x2 = 0.3004 | 813.3 | 3.66
293.15 K, x2 = 0.4006 | 811.6 | 3.19
293.15 K, x2 = 0.4998 | 808.7 | 2.76
293.15 K, x2 = 0.6009 | 806 | 2.41
293.15 K, x2 = 0.7001 | 802.9 | 2.03
293.15 K, x2 = 0.7995 | 799.2 | 1.71
293.15 K, x2 = 0.9001 | 794.9 | 1.43
298.15 K, x2 = 0 | 815.3 | 4.56
298.15 K, x2 = 0.1001 | 813.1 | 4.02
298.15 K, x2 = 0.2003 | 811.5 | 3.6
298.15 K, x2 = 0.3004 | 809.7 | 3.19
298.15 K, x2 = 0.4006 | 807.9 | 2.8
298.15 K, x2 = 0.4998 | 805 | 2.44
298.15 K, x2 = 0.6009 | 802.2 | 2.14
298.15 K, x2 = 0.7001 | 798.9 | 1.81
298.15 K, x2 = 0.7995 | 795.2 | 1.54
298.15 K, x2 = 0.9001 | 790.8 | 1.29
303.15 K, x2 = 0 | 811.7 | 3.9
303.15 K, x2 = 0.1001 | 809.5 | 3.48
303.15 K, x2 = 0.2003 | 807.8 | 3.14
303.15 K, x2 = 0.3004 | 806 | 2.8
303.15 K, x2 = 0.4006 | 804.1 | 2.47
303.15 K, x2 = 0.4998 | 801.2 | 2.17
303.15 K, x2 = 0.6009 | 798.4 | 1.91
303.15 K, x2 = 0.7001 | 795 | 1.63
303.15 K, x2 = 0.7995 | 791.2 | 1.39
303.15 K, x2 = 0.9001 | 786.6 | 1.17
308.15 K, x2 = 0 | 808.1 | 3.36
308.15 K, x2 = 0.1001 | 805.9 | 3.03
308.15 K, x2 = 0.2003 | 804.2 | 2.75
308.15 K, x2 = 0.3004 | 802.3 | 2.47
308.15 K, x2 = 0.4006 | 800.4 | 2.19
308.15 K, x2 = 0.4998 | 797.4 | 1.93
308.15 K, x2 = 0.6009 | 794.5 | 1.71
308.15 K, x2 = 0.7001 | 791.1 | 1.47
308.15 K, x2 = 0.7995 | 787.1 | 1.26
308.15 K, x2 = 0.9001 | 782.5 | 1.07
313.15 K, x2 = 0 | 804.5 | 2.91
313.15 K, x2 = 0.1001 | 802.2 | 2.65
313.15 K, x2 = 0.2003 | 800.5 | 2.42
313.15 K, x2 = 0.3004 | 798.5 | 2.18
313.15 K, x2 = 0.4006 | 796.6 | 1.94
313.15 K, x2 = 0.4998 | 793.6 | 1.73
313.15 K, x2 = 0.6009 | 790.6 | 1.54
313.15 K, x2 = 0.7001 | 787.1 | 1.32
313.15 K, x2 = 0.7995 | 783 | 1.14
313.15 K, x2 = 0.9001 | 778.2 | 0.97
318.15 K, x2 = 0 | 800.8 | 2.54
318.15 K, x2 = 0.1001 | 798.5 | 2.33
318.15 K, x2 = 0.2003 | 796.7 | 2.14
318.15 K, x2 = 0.3004 | 794.8 | 1.94
318.15 K, x2 = 0.4006 | 792.7 | 1.73
318.15 K, x2 = 0.4998 | 789.7 | 1.55
318.15 K, x2 = 0.6009 | 786.6 | 1.39
318.15 K, x2 = 0.7001 | 783 | 1.2
318.15 K, x2 = 0.7995 | 778.9 | 1.04
318.15 K, x2 = 0.9001 | 774 | 0.89
323.15 K, x2 = 0 | 797.1 | 2.23
323.15 K, x2 = 0.1001 | 794.8 | 2.06
323.15 K, x2 = 0.2003 | 793 | 1.9
323.15 K, x2 = 0.3004 | 790.9 | 1.73
323.15 K, x2 = 0.4006 | 788.9 | 1.55
323.15 K, x2 = 0.4998 | 785.7 | 1.39
323.15 K, x2 = 0.6009 | 782.6 | 1.25
323.15 K, x2 = 0.7001 | 779 | 1.09
323.15 K, x2 = 0.7995 | 774.7 | 0.94
323.15 K, x2 = 0.9001 | 769.7 | 0.81
328.15 K, x2 = 0 | 793.4 | 1.97
328.15 K, x2 = 0.1001 | 791 | 1.82
328.15 K, x2 = 0.2003 | 789.2 | 1.69
328.15 K, x2 = 0.3004 | 787.1 | 1.54
328.15 K, x2 = 0.4006 | 784.9 | 1.39
328.15 K, x2 = 0.4998 | 781.8 | 1.25
328.15 K, x2 = 0.6009 | 778.6 | 1.13
328.15 K, x2 = 0.7001 | 774.8 | 0.99
328.15 K, x2 = 0.7995 | 770.4 | 0.86
328.15 K, x2 = 0.9001 | 765.3 | 0.75
